The results in this text go back to patent US8455665B2, “3-phenoxymethylpyrrolidine compounds” (Theravance, Inc., priority 2009, dated 2013).

The target in experiment [1] is NET (Homo sapiens, UniProt P23975). Kind of experiment: fluorescence-based norepinephrine uptake assay (Tsuruda et al. 2010). The class given is cell-based.
Experiment [2] concerns the target SERT (Homo sapiens, UniProt P31645). The experiment in a line: fluorescence-based serotonin uptake assay (Tsuruda et al. 2010). The class given is cell-based.
Where [3] appears, read: norepinephrine reuptake inhibition, fluorescence-based assay (data indicated by an asterisk).
The mark [4] stands for this setting: serotonin reuptake inhibition, fluorescence-based assay (data indicated by an asterisk).
Setting [5] is: norepinephrine reuptake inhibition, fluorescence-based assay (data indicated by an asterisk), read-out: NET pIC50 (converted).
Setting [6] is: serotonin reuptake inhibition, fluorescence-based assay (data indicated by an asterisk), read-out: SERT pIC50 (converted).

Each structure is given as a SMILES string. Where two headings read alike, the source gives them in different places. Marks after values point to notes of the source that are not given here. Some results are limits rather than exact numbers.

Sequence of SERT (P31645 whole entry, species assumed): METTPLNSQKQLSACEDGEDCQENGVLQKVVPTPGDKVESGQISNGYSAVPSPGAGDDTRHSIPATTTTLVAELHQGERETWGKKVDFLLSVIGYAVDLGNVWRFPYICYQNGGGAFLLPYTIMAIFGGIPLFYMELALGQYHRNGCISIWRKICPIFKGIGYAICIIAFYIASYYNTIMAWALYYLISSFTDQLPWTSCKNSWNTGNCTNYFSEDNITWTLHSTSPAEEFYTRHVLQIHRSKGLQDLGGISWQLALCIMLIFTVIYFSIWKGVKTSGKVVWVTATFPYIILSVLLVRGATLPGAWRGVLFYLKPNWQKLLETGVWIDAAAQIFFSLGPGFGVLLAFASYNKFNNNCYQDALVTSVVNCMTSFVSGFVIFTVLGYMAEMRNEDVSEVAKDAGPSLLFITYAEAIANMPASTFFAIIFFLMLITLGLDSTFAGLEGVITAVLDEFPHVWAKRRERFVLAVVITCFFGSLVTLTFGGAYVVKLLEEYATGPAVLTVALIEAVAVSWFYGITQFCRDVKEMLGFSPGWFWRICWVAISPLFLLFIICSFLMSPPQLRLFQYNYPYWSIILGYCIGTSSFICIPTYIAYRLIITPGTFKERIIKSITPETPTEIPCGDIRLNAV
Sequence of NET (P23975 whole entry): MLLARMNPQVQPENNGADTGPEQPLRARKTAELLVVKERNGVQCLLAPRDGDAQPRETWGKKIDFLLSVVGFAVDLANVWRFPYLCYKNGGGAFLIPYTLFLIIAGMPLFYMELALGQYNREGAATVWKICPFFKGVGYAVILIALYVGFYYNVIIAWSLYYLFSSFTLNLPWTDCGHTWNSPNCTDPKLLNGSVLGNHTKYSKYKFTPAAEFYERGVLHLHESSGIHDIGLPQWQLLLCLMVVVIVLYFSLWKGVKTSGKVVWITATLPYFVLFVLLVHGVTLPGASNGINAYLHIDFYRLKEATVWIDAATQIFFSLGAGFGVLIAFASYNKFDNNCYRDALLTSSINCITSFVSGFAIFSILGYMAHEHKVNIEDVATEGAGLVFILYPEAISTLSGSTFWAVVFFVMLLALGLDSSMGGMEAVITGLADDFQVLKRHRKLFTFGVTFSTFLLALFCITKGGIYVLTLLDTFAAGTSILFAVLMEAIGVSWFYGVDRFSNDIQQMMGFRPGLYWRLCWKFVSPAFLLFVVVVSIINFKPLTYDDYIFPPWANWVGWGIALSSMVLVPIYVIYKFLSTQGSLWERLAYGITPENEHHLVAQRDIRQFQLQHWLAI

In the case of `CSC[C@@H](Oc1c(C)cc(Cl)cc1Cl)[C@H]1CCNC1.O=C(O)C(F)(F)F` [Example 15-13], the “NET pIC50” value in experiment [1] (setting [3]) is reported as “≧7.0*”. Further, the “SERT pIC50” value in experiment [2] (setting [4]) is on record as “≧8.0*”.
On to `Clc1ccc(OC(COCc2ccccc2)C2CCNC2)c(Cl)c1` [Example 10-3, ((S)-3-[(R)-2-Benzyloxy-1-(2,4-dichlorophenoxy)ethyl]pyrrolidine], for which the IC50 in experiment [1] (setting [5]) was not above 100 nM; in experiment [2] (setting [6]) it was not above 10 nM.
The matching figures for `Cc1c(Cl)cccc1O[C@H](COC(C)C)[C@H]1CCNC1` [Example 9-15, (S)-3-[(S)-1-(3-Chloro-2-methylphenoxy)-2-isopropoxyethyl]pyrrolidine]: not above 10 nM and not above 10 nM.
The matching figures for `CCOC[C@@H](Oc1ccc(C#N)cc1Cl)[C@@H]1CCNC1` (stereo in doubt) [Example 7-20, 3-Chloro-4-((R)-2-ethoxy-1-(S)-pyrrolidin-3-ylethoxy)benzonitrile]: not above 100 nM and not above 10 nM.
Consider `CSC[C@@H](Oc1cccc(Cl)c1C(F)(F)F)[C@H]1CCNC1.O=C(O)C(F)(F)F` [Example 15-8], for which, in experiment [1] (setting [3]), the “NET pIC50” value is on record as “≧7.0*”. The “SERT pIC50” value in experiment [2] (setting [4]) is recorded as “≧8.0*”.
On to `CCOC[C@@H](Oc1cccc(F)c1Cl)[C@H]1CCNC1` [Example 7-10, (S)-3-[(S)-1-(2-Chloro-3-fluorophenoxy)-2-ethoxyethyl]pyrrolidine], for which the IC50 in experiment [1] (setting [5]) and in experiment [2] (setting [6]) was not above 10 nM each time.
Consider `CC(C)SC[C@@H](Oc1cccc(F)c1Cl)[C@H]1CCNC1` [Example 19-4, (S)-3-[(S)-1-(2-Chloro-3-fluorophenoxy)-2-isopropylsulfanylethyl]pyrrolidine], for which the IC50 in experiment [1] (setting [5]) and in experiment [2] (setting [6]) was not above 10 nM throughout.
On to `CCOC[C@H](Oc1ccc(F)cc1)[C@H]1CCNC1` [Example 7-5, (S)-3-[(R)-2-Ethoxy-1-(4-fluorophenoxy)ethyl]pyrrolidine], for which the IC50 in experiment [1] (setting [5]) and in experiment [2] (setting [6]) was not above 100 nM each time.
As to `CCOC[C@H](Oc1cc(F)cc(Cl)c1)[C@H]1CCNC1` [Example 7-28, (S)-3-[(R)-1-(3-Chloro-5-fluorophenoxy)-2-ethoxyethyl]pyrrolidine], the IC50 in experiment [1] (setting [5]) was not above 10 nM; in experiment [2] (setting [6]), not above 100 nM.
Turning to `Cc1c(Cl)cccc1O[C@@H](COC(C)C)[C@H]1CCNC1` [Example 9-16, (S)-3-[(R)-1-(3-Chloro-2-methylphenoxy)-2-isopropoxyethyl]pyrrolidine], the IC50 in experiment [1] (setting [5]) and in experiment [2] (setting [6]) was not above 10 nM throughout.
For the compound `CC(C)OC[C@@H](Oc1cccc(C(F)(F)F)c1)[C@H]1CCNC1` [Example 9-3, (S)-3-[(S)-2-Isopropoxy-1-(3-trifluoromethylphenoxy)ethyl]pyrrolidine], the IC50 is not above 100 nM in experiment [1] (setting [5]) and not above 10 nM in experiment [2] (setting [6]).
Turning to `CCOC[C@H](Oc1ccc(Cl)cc1F)[C@H]1CCNC1` [Example 7-21, (S)-3-[(R)-1-(4-Chloro-2-fluorophenoxy)-2-ethoxyethyl]pyrrolidine], the IC50 in experiment [1] (setting [5]) and in experiment [2] (setting [6]) was not above 10 nM each time.
For `CSC[C@H](Oc1ccc(Cl)cc1Cl)[C@H]1CCNC1.O=C(O)C(F)(F)F` [Example 15-11], the “NET pIC50” value in experiment [1] (setting [3]) is “≧8.0*”. In addition, the “SERT pIC50” value in experiment [2] (setting [4]) is reported as “≧8.0*”.
`CSC[C@@H](Oc1cccc(C(F)(F)F)c1)[C@H]1CCNC1.O=C(O)C(F)(F)F` [Example 15-10]: the “NET pIC50” value in experiment [1] (setting [3]) is given as “≧7.0*”. Moreover, in experiment [2] (setting [4]), the “SERT pIC50” value was “≧7.0*”.
Regarding `CCOC[C@H](Oc1ccc(Cl)cc1C)[C@H]1CCNC1` [Example 7-22, (S)-3-[(R)-1-(4-Chloro-2-methylphenoxy)-2-ethoxyethyl]pyrrolidine], the IC50 in experiment [1] (setting [5]) and in experiment [2] (setting [6]) was not above 10 nM in each case.
For `CCOC[C@@H](Oc1ccc(C#N)c(Cl)c1)[C@@H]1CCNC1` (stereo in doubt) [Example 7-25, 2-Chloro-4-((R)-2-ethoxy-1-(S)-pyrrolidin-3-ylethoxy)benzonitrile], the IC50 was not above 100 nM in experiment [1] and not above 10 nM in experiment [2].
As to `CCOC[C@H](Oc1cccc(F)c1Cl)[C@H]1CCNC1` [Example 7-9, (S)-3-[(R)-1-(2-Chloro-3-fluorophenoxy)-2-ethoxyethyl]pyrrolidine], the IC50 is not above 10 nM in experiment [1] (setting [5]) and not above 100 nM in experiment [2] (setting [6]).
For `CCSC[C@H](Oc1ccc(C(F)(F)F)cc1)[C@H]1CCNC1.O=C(O)C(F)(F)F` [Example 17-11], the “NET pIC50” value in experiment [1] (setting [3]) is on record as “≧8.0*”. Moreover, in experiment [2] (setting [4]), the “SERT pIC50” value is recorded as “≧8.0*”.
On to `CC(C)OC[C@@H](Oc1ccc(Cl)cc1Cl)[C@H]1CCNC1` [Example 9-23, (S)-3-[(S)-1-(2,4-Dichlorophenoxy)-2-isopropoxyethyl]pyrrolidine], for which the figures for the IC50 in experiment [1] (setting [5]) and in experiment [2] (setting [6]) were not above 100 nM and not above 10 nM, respectively.
Regarding `CSC[C@H](Oc1cccc(Cl)c1C)[C@H]1CCNC1.O=C(O)C(F)(F)F` [Example 15-5], the “NET pIC50” value in experiment [1] (setting [3]) is on record as “≧8.0*”. Besides, the “SERT pIC50” value in experiment [2] (setting [4]) is recorded as “≧8.0*”.
Regarding `CCOC[C@H](Oc1ccc(F)cc1Cl)[C@H]1CCNC1` [Example 7-18, (S)-3-[(R)-1-(2-Chloro-4-fluorophenoxy)-2-ethoxyethyl]pyrrolidine], the IC50 in experiment [1] (setting [5]) was not above 10 nM; in experiment [2] (setting [6]) it was not above 100 nM.
The matching figures for `Cc1c(Cl)cccc1OC(COCc1ccccc1)C1CCNC1` [Example 10-5, ((S)-3-[(R)-2-Benzyloxy-1-(3-chloro-2-methylphenoxy)ethyl]pyrrolidine]: not above 10 nM and not above 10 nM.
Take `CCSC[C@@H](Oc1cccc(Cl)c1C)[C@H]1CCNC1.O=C(O)C(F)(F)F` [Example 17-6]: the “NET pIC50” value in experiment [1] (setting [3]) is reported as “≧8.0*”. In addition, the “SERT pIC50” value in experiment [2] (setting [4]) is listed as “≧8.0*”.
Turning to `Cc1cc(Cl)ccc1O[C@H](CO)[C@@H]1CCNC1` (stereo in doubt) [Example 1, (R)-2-(4-Chloro-2-methylphenoxy)-2-(S)-pyrrolidin-3-yl-ethanol], the IC50 in experiment [1] (setting [5]) and in experiment [2] (setting [6]) was not above 10 nM in each case.
As for `CC(C)OC[C@H](Oc1cccc(Cl)c1Cl)[C@H]1CCNC1` [Example 9-7, (S)-3-[(R)-1-(2,3-Dichlorophenoxy)-2-isopropoxyethyl]pyrrolidine], the IC50 in experiment [1] (setting [5]) and in experiment [2] (setting [6]) was not above 10 nM in each case.
In the case of `CC(C)SC[C@@H](Oc1cccc(Cl)c1Cl)[C@H]1CCNC1` [Example 19-2, (S)-3-[(S)-1-(2,3-Dichlorophenoxy)-2-isopropylsulfanylethyl]pyrrolidine], the IC50 in experiment [1] (setting [5]) and in experiment [2] (setting [6]) was not above 10 nM in each case.
For the compound `CCSC[C@H](Oc1cccc(F)c1Cl)[C@H]1CCNC1.O=C(O)C(F)(F)F` [Example 17-3], the “NET pIC50” value in experiment [1] (setting [3]) is listed as “≧8.0*”. In addition, in experiment [2] (setting [4]), the “SERT pIC50” value is given as “≧8.0*”.
As for `CCOC[C@H](Oc1ccc(C(F)(F)F)cc1)[C@H]1CCNC1` [Example 7-6, (S)-3-[(R)-2-Ethoxy-1-(4-trifluoromethylphenoxy)ethyl]pyrrolidine], the IC50 is not above 100 nM in experiment [1] (setting [5]) and not above 10 nM in experiment [2] (setting [6]).
The like results for `Clc1cccc(Cl)c1OC(COCc1ccccc1)C1CCNC1` [Example 10-4, ((S)-3-[(R)-2-Benzyloxy-1-(2,6-dichlorophenoxy)ethyl]pyrrolidine] were, in that order, not above 10 nM and not above 100 nM.
With `CCSC[C@H](Oc1ccc(Cl)cc1Cl)[C@H]1CCNC1.O=C(O)C(F)(F)F` [Example 17-7], the “NET pIC50” value in experiment [1] (setting [3]) is reported as “≧8.0*”. The “SERT pIC50” value in experiment [2] (setting [4]) is reported as “≧8.0*”.
Turning to `CCOC[C@H](Oc1c(Cl)ccc(Cl)c1F)[C@H]1CCNC1` [Example 7-32, (S)-3-[(R)-1-(3,6-Dichloro-2-fluorophenoxy)-2-ethoxyethyl]pyrrolidine], the IC50 was not above 10 nM in experiment [1] (setting [5]) and not above 100 nM in experiment [2] (setting [6]).
In the case of `CSC[C@H](Oc1ccc(Cl)cc1C)[C@H]1CCNC1` [Example 14, (S)-3-[(R)-1-(4-Chloro-2-methylphenoxy)-2-methylsulfanylethyl]pyrrolidine], the IC50 in experiment [1] (setting [5]) and in experiment [2] (setting [6]) was not above 10 nM in each case.
`CCOC[C@H](Oc1ccc(Cl)cc1C(F)(F)F)[C@H]1CCNC1` [Example 7-23, (S)-3-[(R)-1-(4-Chloro-2-trifluoromethylphenoxy)-2-ethoxyethyl]pyrrolidine]: the IC50 in experiment [1] (setting [5]) and in experiment [2] (setting [6]) was not above 10 nM in each case.
As to `CCOC[C@H](Oc1ccc(Cl)c(F)c1)[C@H]1CCNC1` [Example 7-26, (S)-3-[(R)-1-(4-Chloro-3-fluorophenoxy)-2-ethoxyethyl]pyrrolidine], the IC50 in experiment [1] (setting [5]) and in experiment [2] (setting [6]) was not above 10 nM in each case.
Take `CCSC[C@H](Oc1cccc(Cl)c1C(F)(F)F)[C@H]1CCNC1` [Example 16, (S)-3-[(R)-1-(3-Chloro-2-trifluoromethylphenoxy)-2-ethylsulfanylethyl]-pyrrolidine]: the IC50 in experiment [1] (setting [5]) and in experiment [2] (setting [6]) was not above 10 nM throughout.
For `CCSC[C@H](Oc1cccc(Cl)c1C)[C@H]1CCNC1.O=C(O)C(F)(F)F` [Example 17-5], the “NET pIC50” value in experiment [1] (setting [3]) is given as “≧8.0*”. The “SERT pIC50” value in experiment [2] (setting [4]) is given as “≧8.0*”.
As to `CCSC[C@@H](Oc1cccc(C(F)(F)F)c1)[C@H]1CCNC1.O=C(O)C(F)(F)F` [Example 17-12], in experiment [1] (setting [3]), the “NET pIC50” value is on record as “≧7.0*”. In experiment [2] (setting [4]), the “SERT pIC50” value is reported as “≧8.0*”.
As for `CCOC[C@@H](Oc1ccc(Cl)cc1Cl)[C@H]1CCNC1` [Example 7-17, (S)-3-[(S)-1-(2,4-Dichlorophenoxy)-2-ethoxyethyl]pyrrolidine], the IC50 in experiment [1] (setting [5]) was not above 100 nM; in experiment [2] (setting [6]) it was not above 10 nM.
Turning to `CSC[C@@H](Oc1cccc(F)c1Cl)[C@H]1CCNC1.O=C(O)C(F)(F)F` [Example 15-4], the “NET pIC50” value in experiment [1] (setting [3]) is “≧8.0*”. Further, in experiment [2] (setting [4]), the “SERT pIC50” value is “≧8.0*”.
With `CC(C)OC[C@H](Oc1cccc(F)c1Cl)[C@H]1CCNC1` [Example 9-12, (S)-3-[(R)-1-(2-Chloro-3-fluorophenoxy)-2-isopropoxyethyl]pyrrolidine], the IC50 in experiment [1] (setting [5]) and in experiment [2] (setting [6]) was not above 10 nM throughout.
With `CCSC[C@@H](Oc1cccc(Cl)c1Cl)[C@H]1CCNC1.O=C(O)C(F)(F)F` [Example 17-2], the “NET pIC50” value in experiment [1] (setting [3]) is “≧8.0*”. Further, the “SERT pIC50” value in experiment [2] (setting [4]) is “≧8.0*”.
